Source: patent EP0642504B1 (priority 1991, dated 1993)
Marks after values point to notes of the source that are not given here.

Experiments:
[1] = tested on: Arachidonic Acid-Induced Paw Edema; test: Arachidonic acid-induced paw edema (water displacement); type: in vivo, CD-1 female mice; details: oral, 30 min after arachidonic acid (1.0 mg s.c.), vs vehicle treated controls
Protocol: The induction of paw edema in rodents by injection of arachidonic acid has been used as an experimental model for inflammation [Calhoun, W., et al., Agents and Actions, 21, 306 (1987)]. Prior administration of non-steroidal anti-inflammatory drugs (NSAIDs) in many cases leads to a dose related inhibition of the edematous response which may be considered a predictor of clinical efficacy.
(§1) The conditions were based on those reported previously [Calhoun et al., ibid.]. […] PAF (1.0 µg) or arachidonic acid (1.0 mg) dissolved in 50 µl of 5% ethanol in saline, were injected s.c. into the plantar surface of the right hind paw of CD-1 female mice (20-25 g) obtained from Charles River Labs. The mice were under ether anesthesia during this procedure. The volume of the right foot was measured to the level of the lateral malleous by water displacement before treatment and 15 min after PAF injection or 30 min after archidonate injection. The change in paw volume was calculated for each mouse and the significance for each group was determined by a paired t test analysis.

PAF-Induced Paw Edema = test: PAF-induced paw edema (water displacement); type: in vivo, CD-1 female mice; details: oral, 15 min after PAF (1.0 µg s.c.), vs vehicle treated controls
Protocol: A second model, in which edema is induced by platelet activating factor (PAF), was used to evaluate activity.
as §1

mouse = test: Ring test for cataleptic effects; type: in vivo; details: 5-min test period, vehicle 7.7 ± 4.4
Protocol: The lack of CNS activity for the compounds described herein may be seen from the data shown in Table V. This was measured by the so-called "ring test" [Pertwee, R.G., et al., J. Pharmacol., 46, 753 (1972)] in which the cataleptic effects of cannabinoids can be quantitated. The compounds produced little or no response when compared with the parent drug.
The cataleptic response was measured using the ring test. Mice were placed on a horizontal wire ring 5.5 cm in diameter, which was attached to a 16 cm vertical rod. The hind paws and fore paws were placed at opposite sides of the ring. It is important that the ambient temperature is maintained at 30°C and that the environment be free of auditory stimuli and bright lights. The criteria for immobility are detailed by Pertwee. The response is calculated as the fraction of time the mouse is immobile over a 5-min test period. Measurements were always done between 2 and 4 p.m. and the animals were used only once.

[2] = tested on: picrotoxin induced lethality; test: Protection against picrotoxin induced lethality; type: in vivo, Balb/c male mice; details: drug 10 mg/kg, 120 min before picrotoxin (8 mg/kg) s.c.; no drug 0/17
Description: (§2) The present compounds are active in several tests generally used to indicate neuroprotection.

[3] = tested on: N-methyl-D-aspartate (NMDA) induced lethality; test: Protection against NMDA induced lethality; type: in vivo, Balb/c male mice; details: 90 min before NMDA (125 mg/kg) s.c., no drug 0/20
Description: as §2

intraocular pressure = test: Reduction of intraocular pressure (anti-glaucoma activity); type: in vivo, rabbits; details: 50 µl drop of a 1% emulsion into the rabbit eye
Protocol: Reduction of intraocular pressure in rabbits was determined by the addition of a 50 µl drop of a 1% emulsion of the cannabinoid into the rabbit eye. This test is a measure of anti-glaucomatic activity.

NMDA receptor = test: NMDA-blocking response in Xenopus oocytes injected with rat brain RNA (two-electrode voltage clamp); type: cell-based
Description: The oocyte is the most widely used system for studying the molecular, biophysical and pharmacological properties of expressed voltage- or transmitter-operated ion channels. This giant cell offers several advantages for this type of studies. It can be readily used for two-electrode voltage clamp studies, translates injected mRNA from different sources and functionally expresses the translated proteins, and it is also readily amenable for intracellular microinjections. Importantly, the recordings of transmitter- or voltage-incuded currents in a single oocyte are extremely stable and can be done, without rundown, for 2-3 hours; this allows the performance of a full dose-response relation in single oocytes.
Neuronal receptors for excitatory amino acid (EAA) are becoming increasingly important for the understanding of normal and pathological brain function. Quantitative pharmacological studies of EAA receptor/ion channel complex are difficult to study in neurons. Therefore, Xenopus oocyte injected with brain mRNA is now the preparation of choice.
The response to N-methyl-D-aspartate (NMDA) in oocytes injected with rat brain mRNA was characterized and the effects of HU-245 were studied.
Female Xenopus were anesthetized by immersion in water containing 0.15% tricaine methanesulfonate and a small incision was made in the lower adbomen. Ovary fragments were removed into ND-96. […]

CCCCCCC(C)(C)c1cc(OC(C)=O)c2c(c1)OC(C)(C)[C@H]1CC=C(C(=O)O)C[C@H]21 [HU-245, (3S,4S)-THC-DMH-7-oic acid, acetate]
percent inhibition of paw edema ([1]; dose 0.050 mg.kg): 35.7 (N.S.) percent
percent inhibition of paw edema ([1]; dose 0.100 mg.kg): 50.1* percent
percent inhibition of paw edema ([1]; dose 0.250 mg.kg): 48.2* percent
percent inhibition of paw edema ([1]; dose 0.55 mg.kg): 42.2 (N.S.) percent
percent inhibition of paw edema (PAF-Induced Paw Edema; dose 0.10 mg/kg): 37.3* percent
percent inhibition of paw edema (PAF-Induced Paw Edema; dose 0.25 mg/kg): 66.9* percent
percent inhibition of paw edema (PAF-Induced Paw Edema; dose 0.5 mg/kg): 72.0* percent
Response ± SD (means of the fraction of time the mice remained immobile) (mouse; dose 0.5 mg/kg): 6.8 ± 2.4
Response ± SD (means of the fraction of time the mice remained immobile) (mouse; dose 1.0 mg/kg): 12.0 ± 6.0
Survival rate (number of survivors out of total number of animals used) [2]: 5/8
Survival rate (number of survivors out of total number of animals used) ([3]; drug 2.5 mg/kg): 6/12
Survival rate (number of survivors out of total number of animals used) ([3]; drug 10 mg/kg): 8/10
Reduction of intraocular pressure (intraocular pressure): Significant reduction
response to NMDA (NMDA receptor; 10-^6M compound, 10-^4 M NMDA and 5x10-^6 M glycine, membrane potential -60mV, 1 µM): 55 % of control
reversibility of the effect on the NMDA response (NMDA receptor; upon return to ND 96 solution): reversible
